Laboratory results from patent publication US12195427B2, “MASP-2 inhibitors and methods of use” (priority 2018, dated 2025).
Structures can show the parent of a compound that is named as a salt.

Target: MASP-2 CCP2-SP (Homo sapiens (Human), UniProt O00187)
Assay: MASP-2 co-crystallization, X-ray crystallography and structure analysis (H-bonds, van der Waals contacts);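 on Ligand-pharmacophore element distance, pharmacophore element C2: distance from averaged pharmacophore element to bound ligand; missing value means element absent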;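 on Ligand-pharmacophore element distance, pharmacophore element C3: distance from averaged pharmacophore element to bound ligand; missing value means element absent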;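 on Ligand-pharmacophore element distance, pharmacophore element C4: distance from averaged pharmacophore element to bound ligand; missing value means element absent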;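 on Ligand-pharmacophore element distance, pharmacophore element C5: distance from averaged pharmacophore element to bound ligand; missing value means element absent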
Set-up: van der Waals contact distance, MASP-2 HIS 483 atom CD2 / van der Waals contact distance, MASP-2 HIS 483 atom NE2 / van der Waals contact distance, SER 654 C to compound atom / van der Waals contact distance, SER 654 O to compound atom / van der Waals contact distance, TRP 655 C to compound atom / van der Waals contact distance, MASP-2 GLY 528 atom CA / van der Waals contact distance TRP 655 atom CZ3 / van der Waals contact distance TRP 655 atom N / van der Waals contact distance TRP 655 atom CE3 / van der Waals contact distance GLY 656 atom C / van der Waals contact distance GLY 656 atom CA / van der Waals contact distance GLY 656 atom O / van der Waals contact distance, MASP-2 TYR 607 atom CD1 / van der Waals contact distance, MASP-2 PRO 606 atom O / d(C3,CA1) / d(CA1,N1)2 / d(H4,O1) / d(H4,O2) / d(O1,O2) / d(CA1,O2) / d(CA6,O1) / d(CA6,O2) / d(CA1,C5) / d(O2,H3) / d(N2,C2) / d(CA5,N2) / d(N2,C4) / d(N2,C6) / d(N2,CA3) / d(N2,O3) / d(O4,H2): unit not given beside the values
Details: for H-bond distance to MASP-2 GLY 656 atom N: GLY 656 N; for H-bond distance to MASP-2 GLY 656 atom O: GLY 656 O; for H-bond distance to MASP-2 SER 654 atom O: SER 654 O; for H-bond distance to MASP-2 SER 657 atom O: SER 657 O; for Ligand-pharmacophore element distance, pharmacophore element C2 / Ligand-pharmacophore element distance, pharmacophore element C3 / Ligand-pharmacophore element distance, pharmacophore element C4 / Ligand-pharmacophore element distance, pharmacophore element C5 / Ligand-pharmacophore element distance, pharmacophore element C6 / Ligand-pharmacophore element distance, pharmacophore element C7 / Ligand-pharmacophore element distance, pharmacophore element CA1 / Ligand-pharmacophore element distance, pharmacophore element CA2 / Ligand-pharmacophore element distance, pharmacophore element CA3 / Ligand-pharmacophore element distance, pharmacophore element CA4 / Ligand-pharmacophore element distance, pharmacophore element CA5 / Ligand-pharmacophore element distance, pharmacophore element CA6: Table A4-1
Outline: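 Soaked crystals of recombinant CCP2-SP (E. coli) yield the structures, phased by molecular replacement on 1Q3X pieces. Hydrophobic or nonbonded contacts can also cover atom pairs that are potential hydrogen bonds.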

[1] = Table A5-1 pharmacophore: distance between elements, S2/S1 region
[2] = Table A5-2 pharmacophore distance, S3/S4 region
[3] = Table A7-1, between pharmacophore elements of the bound compound
[4] = Table A7-2, between pharmacophore elements of the bound compound

Chain of MASP-2 CCP2-SP (O00187 445-686): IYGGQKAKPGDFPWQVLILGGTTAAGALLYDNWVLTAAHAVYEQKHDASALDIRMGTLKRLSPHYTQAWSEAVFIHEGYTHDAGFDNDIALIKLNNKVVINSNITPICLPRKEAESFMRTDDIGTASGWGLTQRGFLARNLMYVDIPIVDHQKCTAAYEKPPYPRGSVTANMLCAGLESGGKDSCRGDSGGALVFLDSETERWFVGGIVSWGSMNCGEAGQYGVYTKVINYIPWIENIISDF
Chain of MASP-2 CCP2-SP (O00187 364-432 partner): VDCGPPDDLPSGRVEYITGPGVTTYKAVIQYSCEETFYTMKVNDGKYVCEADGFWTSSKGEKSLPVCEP

N=C(N)c1ccc(CNC(=O)C(CF)NC(=O)[C@H](N)CCc2ccccc2)cc1 (stereo partly drawn) [compound 1050, (2R)-2-Amino-N-(1-((4-carbamimidoylbenzyl)amino)-3-fluoro-1-oxopropan-2-yl)-4-phenylbutanamide Dihydrochloride]
H-bond distance to MASP-2 GLY 656 atom N (Table A1 (H-Bonds)): 3.18 | H-bond distance to MASP-2 GLY 656 atom O (Table A1 (H-Bonds)): 2.58 | H-bond distance to MASP-2 SER 654 atom O (Table A1 (H-Bonds)): 3.03 | H-bond distance to MASP-2 SER 657 atom O (Table A1 (H-Bonds)): 2.86 | van der Waals contact distance, MASP-2 PHE 529 atom CD1 (Table A2-3): 3.61 | van der Waals contact distance, MASP-2 PHE 529 atom CE1 (Table A2-3): 3.56 | van der Waals contact distance, MASP-2 PHE 529 atom CZ (Table A2-3): 3.88 | van der Waals contact distance, MASP-2 amino acid atom to compound atom (Table A2-5: TYR 607 (CE1, CE2, OH), PRO 608 (CD, CG), SER 611 (CA)): 3.68 | van der Waals contact distance, MASP-2 amino acid atom to compound atom (Table A2-9, ARG 630, AA atoms CG, CZ): 3.66 | van der Waals contact distance, MASP-2 amino acid atom to compound atom (Table A2-9 second part, ARG 630, AA atoms N, NE, NH1): 3.66 | van der Waals contact distance, VAL 653 CG1 to compound atom (Table A2-11): 3.74 | van der Waals contact distance, SER 654 O to compound atom (Table A2-12): 3.72 | van der Waals contact distance TRP 655 atom CZ3 (Table A2-13, MASP-2 TRP 655 CZ3): 3.81 | van der Waals contact distance TRP 655 atom N (Table A2-13, MASP-2 TRP 655 N): 3.74 | Ligand-pharmacophore element distance, pharmacophore element C2: 6.95 | Ligand-pharmacophore element distance, pharmacophore element C3: 0 | Ligand-pharmacophore element distance, pharmacophore element C4: 0 | Ligand-pharmacophore element distance, pharmacophore element C5: 0 | Ligand-pharmacophore element distance, pharmacophore element C6: 0 | Ligand-pharmacophore element distance, pharmacophore element C7: 0 | Ligand-pharmacophore element distance, pharmacophore element CA1: 0.57 | Ligand-pharmacophore element distance, pharmacophore element CA2: 0.33 | Ligand-pharmacophore element distance, pharmacophore element CA3: 0 | Ligand-pharmacophore element distance, pharmacophore element CA4: 0 | Ligand-pharmacophore element distance, pharmacophore element CA5: 0 | Ligand-pharmacophore element distance, pharmacophore element CA6: 0 | d(CA1,N1) [1]: 3.47 | d(CA1,O1) [1]: 4.10 | d(CA1,O2) [1]: 4.29 | d(H4,O1) [1]: 4.58 | d(H4,O2) [1]: 4.38 | d(O1,O2) [1]: 3.01 | d(N2,C2) [2]: 6.69 | d(N2,CA2) [2]: 5.73 | d(O2,H3) [2]: 2.72 | d(O2,N2) [2]: 2.76 | a(CA1, O1, O2) (Table A6-1 pharmacophore angle): 114.34 | a(O1, O2, H4) (Table A6-1 pharmacophore angle): 140.76 | A(N1, CA1, O1) a) (Table A6-1 pharmacophore angle, all compounds with protonatable center N1 except Methyl-amino-pyridine): 160.78 | a(O1, O2, H3) (Table A6-2 pharmacophore angle): 137.51 | a(O1, O2, N2) (Table A6-2 pharmacophore angle): 140.97 | a(O2, N2, C2) (Table A6-2 pharmacophore angle): 159.29 | a(O2, N2, CA2) (Table A6-2 pharmacophore angle): 153.66 | Pharmacophore torsion angle a(H4, O1, O2, H3) [3]: 102.21 | Pharmacophore torsion angle a(H4, O1, O2, N2) [3]: 123.45 | Pharmacophore torsion angle a(N1, CA1, O2, H4) [3]: −131.38 | Pharmacophore torsion angle a(O1, H4, O2, CA1) [3]: −58.32 | Pharmacophore torsion angle a(O1, O2, N2, C2) [3]: 66.94 | Pharmacophore torsion angle a(O1, O2, N2, CA2) [4]: 147.29

Cc1nc(N)ccc1CNC(=O)C(C)NC(=O)[C@H]1C[C@H](c2cccc(-c3ccccc3)c2)CN1 (stereo in doubt) [compound 1360, (2R,4R)-4-([1,1′-Biphenyl]-3-yl)-N—((R)-1-(((6-amino-2-methylpyridin-3-yl)methyl)amino)-1-oxopropan-2-yl)pyrrolidine-2-carboxamide]
H-bond distance to MASP-2 ASP 627 atom OD2 (Table A1 (H-Bonds), ASP 627 OD2): 3.15 | H-bond distance to MASP-2 GLY 656 atom N (Table A1 (H-Bonds)): 3.21 | H-bond distance to MASP-2 GLY 656 atom O (Table A1 (H-Bonds)): 2.9 | H-bond distance to MASP-2 SER 628 atom O (Table A1 (H-Bonds), SER 628 O): 3.18 | H-bond distance to MASP-2 SER 654 atom O (Table A1 (H-Bonds)): 3.04 | H-bond distance to MASP-2 SER 657 atom O (Table A1 (H-Bonds)): 2.96 | van der Waals contact distance, MASP-2 HIS 483 atom CD2 (Table A2-1): 3.76 | van der Waals contact distance, MASP-2 HIS 483 atom NE2 (Table A2-1): 3.69 | van der Waals contact distance, MASP-2 PHE 529 atom CE1 (Table A2-3): 3.78 | van der Waals contact distance, MASP-2 amino acid atom to compound atom (Table A2-7: SER 628 (CB, O, OG)): 3.61 | van der Waals contact distance, TRP 655 CA to compound atom (Table A2-12): 3.44 | Ligand-pharmacophore element distance, pharmacophore element C2: 0 | Ligand-pharmacophore element distance, pharmacophore element C3: 0.11 | Ligand-pharmacophore element distance, pharmacophore element C4: 0 | Ligand-pharmacophore element distance, pharmacophore element C5: 0 | Ligand-pharmacophore element distance, pharmacophore element C6: 0 | Ligand-pharmacophore element distance, pharmacophore element C7: 0 | Ligand-pharmacophore element distance, pharmacophore element CA1: 0.57 | Ligand-pharmacophore element distance, pharmacophore element CA2: 2.35 | Ligand-pharmacophore element distance, pharmacophore element CA3: 0 | Ligand-pharmacophore element distance, pharmacophore element CA4: 0 | Ligand-pharmacophore element distance, pharmacophore element CA5: 1.11 | Ligand-pharmacophore element distance, pharmacophore element CA6: 0 | d(C3,CA1) [1]: 2.85 | d(CA1,N1)2 [1]: 1.36 | d(CA1,O1) [1]: 4.35 | d(CA1,O2) [1]: 3.85 | d(H4,O1) [1]: 4.38 | d(H4,O2) [1]: 3.80 | d(O1,O2) [1]: 3.32 | d(CA5,N2) [2]: 5.07 | d(N2,CA2) [2]: 8.32 | d(O2,H3) [2]: 4.32 | d(O2,N2) [2]: 2.66 | a(C3, CA1, O1) (Table A6-1 pharmacophore angle): 150.18 | a(CA1, O1, O2) (Table A6-1 pharmacophore angle): 105.67 | a(O1, O2, H4) (Table A6-1 pharmacophore angle): 132.69 | a(N1, CA1, O1) b) (Table A6-1 pharmacophore angle, Methyl-amino-pyridine compounds): 174.23 | a(O1, O2, H3) (Table A6-2 pharmacophore angle): 147.57 | a(O1, O2, N2) (Table A6-2 pharmacophore angle): 138.89 | a(O2, N2, CA2) (Table A6-2 pharmacophore angle): 162.09 | Pharmacophore torsion angle a(C3, CA1, O1, H4) [3]: 24.01 | Pharmacophore torsion angle a(H4, O1, O2, H3) [3]: 51.00 | Pharmacophore torsion angle a(H4, O1, O2, N2) [3]: 138.89 | Pharmacophore torsion angle a(N1, CA1, O1, H4) [3]: 3.34 | Pharmacophore torsion angle a(O1, H4, O2, CA1) [3]: −83.81 | Pharmacophore torsion angle a(O1, O2, N2, CA2) [4]: 130.24 | Pharmacophore torsion angle a(O1, O2, N2, CA5) [4]: 129.35
